Reference: US4145253A, “Process for producing fortimicin factors” (Abbott Laboratories, priority 1976, dated 1979)
Values after ≈ are worked out from the molar mass of the structure shown. “Also recorded” adds a separate entry of the source. Where a name gives a salt, the structure may show the parent alone. Read-outs that look alike come from different tables or passages of the source.

How the values were obtained:
LD50 for dd-mouse = conditions: in vivo; dd-mouse weighing 20 ± 1 g
Text: Further, Fortimicin D is expected to have a therapeutic effect on various infections (in human beings and in animals) induced by the above-mentioned various bacteria. […] With such antibacterial properties, Fortimicin D is applicable to medicinal purposes.

[1] = tested on: Bacillus subtilis No. 10707; experiment: antibacterial activity of preparations (paper disc method); type: cell-based
Description: After the completion of fermentation, the culture liquor is adjusted to pH 2.5 with concentrated sulfuric acid and is stirred for 30 minutes. Thereafter, about 7 kg of a filter aid, Radiolite No. 600 (product of Showa Kagaku Kogyo Co., Ltd.) is added to the culture liquor and the microbial cells are removed by filtration. The filtrate is adjusted to pH 7.5 by the addition of 6N sodium hydroxide, and then passed through a column packed with about 20 l of a cation exchange resin, Amberlite IRC-50 (ammonium form). The active principles are adsorbed on the resin, and the effluent is discarded. After the resin is washed with water, elution of the active principles is carried out with 0.5N aqueous ammonia. The eluate is subjected to determination of activity by a paper disc method using an agar plate of Bacillus subtilis No. 10707. Fractions showing an activity are combined and concentrated under reduced pressure to about 1 L. The concentrate is then passed through a column packed with 500 ml of an anion exchange resin, Dowex 1 × 2 (OH form) and then about 2 L of water is passed through the column. In this manner, impurities are removed and the active principles are eluted with water. The active fractions are combined and concentrated under reduced pressure to about 100 ml. The concentrate is passed through a column packed with about 50 ml of active carbon powder whereby the active principles are adsorbed. The column is washed with water and the effluent and washings are discarded. Elution is carried out with 0.2N sulfuric acid. The eluate is subjected to determination of activity by a paper disc method using Bacillus subtilis No. 10707. The active fractions are combined and passed through a column of a resin, Dowex 44 (OH form) and elution of the active principles is carried out with water. The active fractions are combined and concentrated to about 50 ml. The concentrate is freeze-dried to obtain a crude powder of Fortimicin complex. The yield of the crude powder is about 35 g and the activity is 580 unit/mg (activity of 1 mg of the pure preparate corresponds to 1,000 units).
About 500 ml of silica gel is suspended in a solvent comprising isopropanol, chloroform, and concentrated aqueous ammonia (4:2:1 by volume) and packed in a glass column as a tight, uniform layer. Thereafter, the column is thoroughly washed with the same solvent. Then 10 g of the crude powder obtained in the above step B is charged over the silica gel to form a uniform, thin layer. After the crude powder is charged, the same solvent is poured gradually into the column from the top and thereafter elution is carried out continuously at a flow rate of about 50 ml/hour. The eluate is recovered in 20 ml fractions and each of the fractions is subjected to determination of activity by the paper disc method using Bacillus subtilis No. 10707. First, Fortimicin B is eluted followed by Fortimicin A. Then, the elution is continued and after Fortimicin C is eluted, Fortimicin D is eluted. The active fractions are subjected to thin layer chromatography and the fractions containing Fortimicin D are combined and concentrated under reduced pressure to sufficiently remove the solvent.
About 500 ml of silica gel, suspended in a solvent comprising isopropanol, chloroform, and concentrated aqueous ammonia (4:2:1 by volume) is packed in a glass column as a tight, uniform layer. Thereafter, the column is thoroughly washed with the same solvent. Then the crude powder obtained above is charged over the silica gel in a uniform thin layer and the same solvent is poured gradually into the column from the top and thereafter elution is carried out continuously at a flow rate of about 50 ml/hour. The eluate is recovered in 20 ml fractions and each of the fractions is subjected to determination of activity by the paper disc method using Bacillus subtilis No. 10707. First, Fortimicin B is eluted followed by Fortimicin KE. […]

[2] = tested on: Bacillus subtilis No. 10707; experiment: antibacterial spectrum, MIC by agar dilution method; type: cell-based; conditions: pH 8.0, read-out: Minimum Inhibitory Concentration
Text: (§1) Table 4 illustrates the antibacterial spectra of Fortimicin D and Fortimicin KE against various microorganisms.
(§2) (Minimum Inhibitory Concentration, γ/ml
(§3) measured by agar dilution method at pH 8.0)

Escherichia coli ATCC 26 = experiment: as above; type: cell-based
Text: as §1, §2, §3

Escherichia coli KY 8315 = experiment: as above; type: cell-based
Text: as §1, §2, §3

Escherichia coli KY 8327 = experiment: as above; type: cell-based; conditions: for MIC: Escherichia coli
Text: as §1, §2, §3

[3] = tested on: Klebsiella pneumoniae ATCC 10031; experiment: as above; type: cell-based
Text: as §1, §2, §3

[4] = tested on: Pseudomonas aeruginosa BMH No. 1; experiment: as above; type: cell-based; conditions: BMHNO.1, pH 8.0, read-out: Minimum Inhibitory Concentration
Text: as §1, §2, §3

[5] = tested on: Pseudomonas aeruginosa KY 8510; experiment: as above; type: cell-based; conditions: KY8510, pH 8.0, strain resistant to kanamycin, kanamycin B, tobramycin, gentamicin C1a and ribostamycin, read-out: Minimum Inhibitory Concentration
Text: as §1, §2, §3

[6] = tested on: Salmonella typhosa ATCC 9992; experiment: as above; type: cell-based; conditions: Salmonella enterica, pH 8, read-out: Minimum Inhibitory Concentration
Text: as §1, §2, §3

[7] = tested on: Shigella sonnei ATCC 9290; experiment: as above; type: cell-based; conditions: ATCC9290, pH 8.0, read-out: Minimum Inhibitory Concentration
Text: as §1, §2, §3

[8] = tested on: Staphylococcus aureus ATCC 6538P; experiment: as above; type: cell-based; conditions: ATCC6538P, pH 8.0, read-out: Minimum Inhibitory Concentration
Text: as §1, §2, §3

[9] = tested on: Gram-positive and Gram-negative bacteria; experiment: antibacterial spectrum, statement in words; type: cell-based
Text: as §1, §2, §3

[10] = solubility of the free base; type: physicochemical; conditions: for solubility in organic solvents: chloroform, benzene, ethyl acetate, butyl acetate, ethyl ether, butanol, petroleum ether, n-hexane, etc., ordinary organic solvents; for solubility in ethanol and acetone / solubility in methanol / solubility in water: free base
[11] = stability in alkaline solution; type: physicochemical
[12] = Examples 2 and 3, before cellulose column chromatography
[13] = Examples 2 and 3, free base after cellulose column chromatography
[14] = Examples 4 and 5, purified preparate, Casamino acid medium
[15] = Table 5, purified preparate from Micromonospora olivoasterospora MK-70
[16] = Table 5, purified preparate from Micromonospora olivoasterospora MK-80
[17] = Table 5, purified preparate from Micromonospora olivoasterospora Mm 744
[18] = preparate of Example 1, strain CS-26, silica gel chromatography

Structure (SMILES)	activity ([1]; Examples 8 and 9, sulfate)	MIC [2] [µg/mL]	MIC [4] [µg/mL]	MIC [6] [µg/mL]	MIC [7] [µg/mL]	MIC [8] [µg/mL]	antibacterial activity / spectrum [9]	activity [1, 12]	activity [1, 13] [unit/mg]	activity [1, 14]	activity [1, 15] [unit/mg]	activity [1, 16] [unit/mg]	activity [1, 17] [unit/mg]	activity [1, 18]	solubility in organic solvents [10]	solubility in ethanol and acetone [10]	solubility in methanol [10]	solubility in water [10]	other results
COC1C(O)C(N)C(OC2OC(CN)CCC2N)C(O)C1N(C)C(=O)CN (stereo not shown) [Fortimicin D sulfate]	about 650 unit/mg	–	–	–	–	–	–	–	–	–	–	–	–	–	–	–	–	–	LD50 (LD50 for dd-mouse): 159 mg/kg
COC1C(O)C(N)C(OC2OC(CN)CCC2N)C(O)C1N(C)C(=O)CN (stereo not shown) [Fortimicin D]	–	0.02 (≈ 0.0511 µM)	5 (≈ 12.8 µM)	0.08 (≈ 0.204 µM)	0.3 (≈ 0.766 µM)	0.02 (≈ 0.0511 µM)	strong antibacterial activity against a broad range of Gram-positive and Gram-negative bacteria	about 840 unit/mg	970	about 975 unit/mg	985	975	990	about 980 unit/mg	poorly soluble; also recorded: insoluble	slightly soluble	soluble	readily soluble	MIC (Escherichia coli ATCC 26; ATCC26, agar dilution method, pH 8.0, read-out: Minimum Inhibitory Concentration): 0.32 µg/mL (≈ 0.817 µM); MIC (Escherichia coli KY 8315; KY8315, agar dilution method, pH 8.0, read-out: Minimum Inhibitory Concentration): 0.13 µg/mL (≈ 0.332 µM); MIC (Escherichia coli KY 8327; KY8327, agar dilution method, pH 8.0, strain resistant to kanamycin, gentamicin and tobramycin, read-out: Minimum Inhibitory Concentration): 0.13 µg/mL (≈ 0.332 µM); activity against resistant Escherichia coli (Escherichia coli KY 8327; certain strains of Escherichia coli resistant to kanamycin, gentamicin and tobramycin): effective against certain strains of Escherichia coli which are resistant to kanamycin, gentamicin and tobramycin; MIC ([3]; ATCC10031, agar dilution method, pH 8.0, read-out: Minimum Inhibitory Concentration): 0.08 µg/mL (≈ 0.204 µM); MIC [5]: 5 µg/mL (≈ 12.8 µM)
CNC1C(O)C(OC2OC(CN)CCC2N)C(N)C(O)C1OC (stereo not shown) [Fortimicin KE]	–	104 (≈ 312 µM)	208 (≈ 623 µM)	13.1 (≈ 39.2 µM)	26.1 (≈ 78 µM)	1.65 (≈ 4.93 µM)	broad antibacterial spectrum	about 860 unit/mg	980	about 985 unit/mg	985	980	990	about 970 unit/mg	poorly soluble; also recorded: insoluble	slightly soluble	soluble	readily soluble	MIC (Escherichia coli ATCC 26; ATCC26, pH 8, read-out: Minimum Inhibitory Concentration): 26.1 µg/mL (≈ 78 µM); MIC (Escherichia coli KY 8315; KY8315, pH 8, read-out: Minimum Inhibitory Concentration): 26.1 µg/mL (≈ 78 µM); MIC (Escherichia coli KY 8327; KY8327, pH 8, read-out: Minimum Inhibitory Concentration): 26.1 µg/mL (≈ 78 µM); MIC ([3]; ATCC10031, pH 8, read-out: Minimum Inhibitory Concentration): 26.1 µg/mL (≈ 78 µM); activity ([1]; Example 7, free base obtained from Fortimicin D with barium hydroxide): about 970 unit/mg; stability in an alkaline solution [11]: stable in an alkaline solution
CNC1C(O)C(OC2OC(CN)CCC2N)C(N)C(O)C1OC (stereo not shown) [sulfate of Fortimicin KE]	about 610 unit/mg	–	–	–	–	–	–	–	–	–	–	–	–	–	–	–	–	–	–
